# Experimental data taken from patent US20100280052A1, “USE OF ANTIVIRALS TO TREAT CMV-RELATED CONDITIONS” (priority 2007, published 2010).
# Legend:
# [1] = prodrug compared with penciclovir; cited from earlier work
# [2] = system: CMV-specific CD4+ T cells; assay: CD4+ T cells producing interferon-gamma after CMV lysate stimulation, single individual (Example 2, FIG. 17); format: in vivo, human; details: before, 3 and 14 months after treatment with acyclovir 40 mg b.d.
# Excerpt: Referring to FIG. 17, the blood was stimulated with CMV lysate, and the percentage of CD4+ T cells which produce interferon-gamma in response to antigen measured. It can be seen that this percentage was reduced on treatment.
# [3] = system: CMV-specific T cells; assay: Elispot analysis of antigen-specific T cells after CMV lysate stimulation (Example 1, FIG. 11); format: in vivo, human; details: patients taking ACV or VCV vs healthy CMV seropositive donors
# Description: (§1) The CMV-specific immune response was measured in a cohort of CMV seropositive or seronegative donors who are taking acyclovir or valaciclovir. This was compared to an age-matched control cohort. […] Comprehensive analysis of (1) the total T cell profile of these donors, and (2) their CMV-specific response, was performed. The results were compared to an age-matched control group of CMV seropositive or seronegative donors.
# A reduced Elispot response to CMV is seen in patients taking ACV or VCV.
# [4] = system: CD8+ T cells; assay: CD57 antibody staining of peripheral blood CD8+ T cells (Example 1, FIG. 16); format: in vivo, human; details: CMV seropositive donors, patients taking drug vs healthy controls
# Description: as §1
# [5] = system: CD4+ T cells; assay: CD27, CD28, CD57 antibody staining of peripheral blood CD4+ T cells (Example 1, FIGS. 12-15); format: in vivo, human; details: CMV-seropositive patients taking ACV or VCV vs healthy donors; for percentage of CD4+ T cells which have lost expression of CD27: FIGS. 12, 13; for percentage of CD4+ T cells which have lost expression of CD28: FIGS. 12, 14; for percentage of CD4+ T cells which have gained expression of CD57: FIGS. 12, 15
# Description: as §1
# In FIG. 12, CD4+ T cells in peripheral blood of 35 CMV-seropositive or seronegative healthy donors were stained with antibodies to CD27, CD28 or CD57. These are shown on the left panel. A similar analysis was performed on patients taking acyclovir or valacyclovir (right hand panel). It can be seen that the percentage of CD4 + T cells which have lost expression of CD27 or CD28, or have gained expression of CD57, is lower in CMV-seropositive patients who are taking ACV or VCV in comparison to healthy donors.
# Referring to FIG. 13, CD4+ T cells in peripheral blood of 25 healthy donors or patients taking ACV or VCV were stained with antibodies to CD27.
# Referring to FIG. 14, CD4+ T cells in peripheral blood of 25 healthy donors or patients taking ACV or VCV were stained with antibodies to CD28.
# Referring to FIG. 15, CD4+ T cells in peripheral blood of 25 healthy donors or patients taking ACV or VCV were stained with antibodies to CD57.
# [6] = system: CMV; details: cited from earlier work
# [7] = system: CMV-specific T cells; assay: Interferon-gamma Elispot analysis of CMV-specific T cells, single individual (Example 2, FIG. 18); format: in vivo, human; details: before, 3 and 14 months after treatment with acyclovir 40 mg b.d., CMV lysate or pp65 or IE-1 peptide pools
# Excerpt: Finally, referring to FIG. 18, the blood was stimulated with CMV lysate, or peptide pools from CMV pp65 or IE-1, and the number of CMV-specific T cells was detected using interferon-gamma Elispot analysis. It can be seen that the magnitude of this response was reduced by treatment.
# [8] = system: CMV-specific T cells; assay: CMV-specific T cells detected by Interferon-gamma expression in blood of patients taking ACV or VCV (Example 1, FIGS. 9, 10); format: in vivo, human
# [9] = cited from earlier work; for side effects: at common doses
# [10] = system: CMV; details: ganciclovir and valganciclovir compared with acyclovir and valacyclovir; cited from earlier work
# [11] = FIG. 9, CMV seropositive patients on ACV 400 mg b.d. or VCV 500 mg o.d. or b.d. vs healthy control CMV seropositive donors, CMV lysate or pp65 and IE-1 peptide pools
# [12] = FIG. 10, time-dependent effect, ACV 400 mg b.d. or VCV 500 mg o.d. or b.d., CMV lysate
Structure (SMILES),Elispot response to CMV [3],percentage of CD8+ T cells which express CD57 [4],percentage of CD4+ T cells which have lost expression of CD27 [5],percentage of CD4+ T cells which have lost expression of CD28 [5],percentage of CD4+ T cells which have gained expression of CD57 [5],"number of CMV-specific T cells (Interferon-gamma expression) [8, 11]","number of CMV-specific T cells (Interferon-gamma expression) [8, 12]",side effects [9],activity against CMV [10],also measured
CC(=O)OCC(CCn1cnc2cnc(N)nc21)COC(C)=O [Famciclovir],–,–,–,–,–,–,–,–,–,bioavailability [1]: improved bioavailability
"Nc1nc2c(ncn2COCCO)c(=O)[nH]1 [acyclovir, 9-(2-hydroxyethoxymethyl)guanine]",reduced,reduced,reduced,reduced,reduced,reduced,reduced,"nausea, vomiting, diarrhoea and/or headaches",–,percentage of CD4+ T cells which produce interferon-gamma in response to antigen [2]: reduced; percentage of CD4+ T cells which have lost expression of CD27 ([5]; listed as ACV): lower; percentage of CD4+ T cells which have lost expression of CD28 ([5]; listed as ACV): lower; percentage of CD4+ T cells which have gained expression of CD57 ([5]; listed as ACV): lower; activity against CMV replication in vitro [6]: minimal activity; number of CMV-specific T cells (magnitude of interferon-gamma Elispot response) [7]: reduced
Nc1nc(O)c2ncn(COC(CO)CO)c2n1 [ganciclovir],–,–,–,–,–,–,–,–,markedly improved activity,"carcinogenicity, teratogenicity, mutagenicity ([9]; human): potential human carcinogen, teratogen, and mutagen"
Nc1nc2c(ncn2CCC(CO)CO)c(=O)[nH]1 [penciclovir],–,–,–,–,–,–,–,–,minimal activity,side effects compared with acyclovir ([9]; treatment of herpesvirus infections): fewer side effects
CC(C)[C@H](N)C(=O)OCCOCn1cnc2c(=O)[nH]c(N)nc21 [valacyclovir],reduced,reduced,reduced,reduced,reduced,reduced,reduced,"nausea, vomiting, diarrhoea and/or headaches",–,percentage of CD4+ T cells which have lost expression of CD27 ([5]; listed as VCV): lower; percentage of CD4+ T cells which have lost expression of CD28 ([5]; listed as VCV): lower; percentage of CD4+ T cells which have gained expression of CD57 ([5]; listed as VCV): lower
CC(C)[C@H](N)C(=O)OCC(CO)OCn1cnc2c(=O)nc(N)[nH]c21 (stereo partly shown) [valganciclovir],–,–,–,–,–,–,–,–,markedly improved activity,–
